Measured values from patent US5997501A, “Intradermal drug delivery device” (Elan Corporation, plc, priority 1993, dated 1999).

Experiments:
[1] = type: in vivo, New Zealand white rabbits; settings: 1000 IU/h for 5 hours from device
Text: (§1) Devices manufactured according to the present invention were used to study the delivery of insulin, heparin and salmon calcitonin to New Zealand white rabbits weighing between 2.5 kg and 3.5 kg. Hair was removed from the dorsal surface of the animal using an electric clipper twenty-fours prior to application of the device. Arterial blood samples were withdrawn for determination of plasma concentration of drug through an indwelling cannula placed in the ear artery.
Delivery of heparin from devices according to the present invention was studied by administering heparin at a rate of 1000 IU/h for 5 hours. Plasma heparing was assayed using an EIA method.

[2] = tested on: blood glucose; experiment: Blood glucose concentration in rabbits after intradermal device infusion of insulin (Example 1, FIG. 19); type: in vivo, rabbit; settings: for mean blood glucose concentration: control value 6.25 mmol/l
Description: A device according to the present invention containing 0.6 ml of a solution of insulin (100 I.U./ml) was affixed to each of two rabbits and the devices were switched on. The insulin solution was infused at a rate of 0.1 ml/hour for two hours. […] At one hour, mean blood glucose concentration had fallen from a control value of 6.25 mmol/l to 3.2 mmol/l. This value stayed relatively constant at 1.5 hours following activation (2.65 mmol/l) and at 2 hours (2.5 mmol/l), at which time the devices were removed.

[3] = Plasma insulin concentration (RIA) in rabbits during device delivery of insulin (Example 3); type: in vivo, New Zealand white rabbits; settings: 5 IU/h, time=3h
Text: as §1
(§2) Diabetes was induced in test rabbits by administration intravenously of a 150 mg/kg dose of alloxan (monohydrate) to fasted rabbits. The rabbits were provided with a dextrose solution for three days after alloxan administration and after this time normal diet was resumed. Test animals were maintained healthy with a commercial insulin preparation prior to the study. The devices were attached to the rabbits and delivery of insulin at a rate of 5 IU/h was commenced to normoglycaemic animals (for 3 hours) and to diabetic animals (for 3.25 hours). Whole blood glucose concentrations were measured using an Ames glucometer and plasma insulin concentration were measured using a RIA method.

[4] = tested on: blood glucose; experiment: Whole blood glucose concentration (Ames glucometer) in rabbits during device delivery of insulin (Example 3); type: in vivo, New Zealand white rabbits; settings: normal and diabetic animals; 5 IU/h
Text: as §1, §2

[5] = tested on: serum calcium; experiment: Serum calcium concentration in rabbits after intradermal device infusion of salmon calcitonin (Example 2, FIG. 20); type: in vivo, rabbit; settings: for mean serum calcium concentration, % of control value: 1.0 mg/ml at 0.1 ml/hour for 6 hours, four rabbits
Description: A device according to the present invention containing 0.6 ml of a solution of salmon calcitonin (1.0 mg/ml) was affixed to each of four rabbits. This solution was infused at the rate of 0.1 ml/hour for 6 hours. Serum calcium concentrations were measured via an ear vein at 0, 0.5, 1, 2, 3, 4, 5 and 6 hours following activation of the device, at which point the device was removed.

[6] = Delivery of calcitonin from device compared with conventional subcutaneous injection (plasma calcitonin by EIA, plasma calcium by photometric analysis); type: in vivo, New Zealand white rabbits
Text: as §1
To compare delivery of calcitonin using devices according to the present invention to conventional delivery, 40 IU calcitonin was delivered to a rabbit over 2 hours from a device according to the present invention and 20 IU calcitonin was delivered by a conventional single subcutaneous injection. In a further study, calcitonin was delivered at a rate of 25 IU/h and 100 IU/h for a period of 6 hours from devices according to the present invention. Plasma concentrations of calcium were measured using a photometric analysis while calcitonin concentrations were measured by an EIA method.

heparin
amounts of heparin delivered [1]: significant anticoagulant amounts

insulin: solution of insulin (100 I.U./ml)
mean blood glucose concentration ([2]; 1 hour following activation, 100 I.U./ml at 0.1 ml/hour, two rabbits): 3.2 mmol/L
mean blood glucose concentration ([2]; 1.5 hours following activation, 100 I.U./ml at 0.1 ml/hour): 2.65 mmol/L
mean blood glucose concentration ([2]; 2 hours following activation (devices removed), 100 I.U./ml at 0.1 ml/hour): 2.5 mmol/L
mean blood glucose, course after device removal ([2]; later than one hour after device removal): continued to rise with time
mean blood glucose concentration ([2]; one hour after device removal): 3.7 mmol/L
plasma insulin concentration ([3]; diabetic (alloxan) rabbits, approximately 10 fmol/ml at time 0): approximately 240 fmol/ml
plasma insulin concentration ([3]; normal (normoglycaemic) rabbits, approximately 25 fmol/ml at time 0): approximately 275 fmol/ml
blood glucose concentration, change [4]: corresponding decrease in blood glucose concentration was observed for both normal and diabetic animals

salmon calcitonin
mean calcium concentrations, course ([5]; 0 to 6 hours, 0.1 ml/hour): fell steadily throughout the period of application
mean serum calcium concentration, % of control value ([5]; 5 hours following activation): 62.5%
mean serum calcium concentration, % of control value ([5]; 6 hours following activation): 66.6%
delivery of calcitonin, dose proportionality ([6]; 25 IU/h and 100 IU/h for 6 hours from devices): dose proportional
delivery of calcitonin compared with conventional routes ([6]; 40 IU over 2 hours from device vs 20 IU single subcutaneous injection): comparable to that from conventional routes
